Laboratory results: ChEMBL document CHEMBL1201862, “PubChem BioAssay data set” (2004)
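Cells were grown in 96-well plates and exposed to each compound for 48 hours at five concentrations; endpoints were interpolated linearly between bracketing concentrations, or set to the highest concentration if not reached. Abbreviation: GI50, concentration required for 50% inhibition of growth.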 Activity calls are given as the source filed them. Cut-off read from the data, not from the text of the source: active = GI50 up to about 1.1 µM and inactive = higher.

How the values were obtained:
Test in all cases: NCI-60 cell line screen, 48 h
[1] = test system: RXF 631
[2] = test system: LXFL 529
[3] = test system: M19-MEL
[4] = test system: XF498
[5] = test system: KM-20L2
[6] = test system: HOP-18
[7] = test system: DMS-273
[8] = test system: SNB-78
[9] = test system: DLD-1

SMILES | GI50 [1] | GI50 [2] | GI50 [3] | GI50 [4] | GI50 [5] | GI50 [6] | GI50 [7] | GI50 [8] | GI50 [9]
CC(/C=C/C(=O)c1sc(-n2nc(-c3ccccc3)cc2-c2ccccc2)nc1C)=C\c1ccccc1 | 65.9 µM (inactive) | 38.4 µM (inactive) | 75 µM (inactive) | > 10 µM (inactive) | 20.7 µM (inactive) | > 10 µM (inactive) | > 10 µM (inactive) | > 10 µM (inactive) | 29.9 µM (inactive)
COc1cc([C@@H]2c3cc4c(cc3[C@@H](OC3OC5COC(C)OC5C(O)C3O)[C@H]3COC(=O)[C@H]23)OCO4)cc(OC)c1O (some centres undefined) |  | 26.5 µM (inactive) | 34.7 µM (inactive) | 8.41 µM (inactive) | 70.8 µM (inactive) | 28.3 µM (inactive) | 1.97 µM (inactive) | 46.8 µM (inactive) | 37.2 µM (inactive)
COC(=O)C(Cc1cc(OC)c(OC)c(OC)c1)(NC(=O)c1ccccc1)P(=O)(OC)OC (centres undefined) | > 100 µM (inactive) | > 100 µM (inactive) | > 100 µM (inactive) | > 100 µM (inactive) | > 100 µM (inactive) |  | > 100 µM (inactive) | > 100 µM (inactive) | > 100 µM (inactive)
CC(C)N(C(=O)C12C3C4C5(C#N)C3C1(C#N)C5C42I)C(C)C (centres undefined) | > 100 µM (inactive) | > 100 µM (inactive) | 97.1 µM (inactive) | > 100 µM (inactive) | > 100 µM (inactive) | > 100 µM (inactive) | > 43.4 µM (inactive) | > 100 µM (inactive) | > 42.6 µM (inactive)
COC(=O)c1ccc(OCc2ccc3nc(OC)c(OC)nc3c2)cc1 |  |  | > 100 µM (inactive) | > 100 µM (inactive) |  | > 100 µM (inactive) | > 100 µM (inactive) | > 100 µM (inactive) | > 100 µM (inactive)
O=C(CC1OC(O)C(Cl)=C1Cl)c1cccnc1 (centres undefined) | > 100 µM (inactive) | > 56.1 µM (inactive) | > 62.4 µM (inactive) | > 100 µM (inactive) | > 100 µM (inactive) | > 100 µM (inactive) | > 53 µM (inactive) | > 100 µM (inactive) | 
CCC(C)C1NC(=O)CNC(=O)C2Cc3c([nH]c4cc(O)ccc34)[S+]([O-])CC(NC(=O)CNC1=O)C(=O)NC(CC(=O)O)C(=O)N1CC(O)CC1C(=O)NC(C(C)C(O)CO)C(=O)N2 (centres undefined) |  |  | 3.24 µM (inactive) | 1.16 µM (inactive) | 31.6 µM (inactive) | 25.8 µM (inactive) | 2.23 µM (inactive) | 0.664 µM (active) | 12.4 µM (inactive)
CCCCCCCCCCCCCCCC(=O)OCC(C[As](=O)(O)O)OC(=O)CCCCCCCCCCCCCCC (centres undefined) | 54.7 µM (inactive) | > 100 µM (inactive) | > 100 µM (inactive) | 27 µM (inactive) | > 100 µM (inactive) | > 100 µM (inactive) | > 100 µM (inactive) | 22.4 µM (inactive) | > 100 µM (inactive)
CN(CCO)/N=N/c1n[nH]cc1C(N)=O |  |  | > 100 µM (inactive) | > 100 µM (inactive) | > 86.7 µM (inactive) | > 100 µM (inactive) | > 100 µM (inactive) | > 100 µM (inactive) | > 100 µM (inactive)
C=CCONC(=O)c1ccc(Cl)cc1 | > 100 µM (inactive) | > 100 µM (inactive) | > 100 µM (inactive) | > 100 µM (inactive) | > 100 µM (inactive) | > 100 µM (inactive) |  | > 100 µM (inactive) | > 100 µM (inactive)
CC1(c2cccc(C3CCC4(C=CC3=O)OCCO4)c2)OCCO1 (centres undefined) |  | 1.62 µM (inactive) | 5.62 µM (inactive) |  | 4.07 µM (inactive) |  | 10.9 µM (inactive) | 19.4 µM (inactive) | 3.35 µM (inactive)
CCN(CC)c1ccc2c(c1)Nc1cc(=C(C#N)C#N)c3ccccc3c1=N2 | > 100 µM (inactive) | > 100 µM (inactive) | > 100 µM (inactive) | > 100 µM (inactive) | > 100 µM (inactive) | > 100 µM (inactive) | > 100 µM (inactive) | > 100 µM (inactive) | > 100 µM (inactive)
O=[N+]([O-])c1cccc2c1[nH]c1c(-c3ccccc3)nccc12 |  |  | 2.07 µM (inactive) | 2.65 µM (inactive) | 2.45 µM (inactive) | 0.274 µM (active) | 2.43 µM (inactive) |  | 2.85 µM (inactive)
CN(C)CCNC(=O)c1cccc2[nH]c(-c3ccccn3)nc12 |  |  | 29.7 µM (inactive) | 36.6 µM (inactive) | 25.6 µM (inactive) | 29 µM (inactive) | 26 µM (inactive) | 34.9 µM (inactive) | 33.7 µM (inactive)
CC1OC(OC2CC(O)(C(=O)CO)Cc3c(O)c4c(c(O)c32)C(=O)c2ccccc2C4=O)CC(N)C1O (centres undefined) | 0.0102 µM (active) | < 0.0238 µM (active) | < 0.01 µM (active) |  | < 0.0117 µM (active) | < 0.01 µM (active) | < 0.01 µM (active) | 0.0637 µM (active) | < 0.01 µM (active)
CCN(c1ccc(Br)cc1)c1c(Br)c(=O)nc2ccccn12 | > 100 µM (inactive) | > 100 µM (inactive) | > 100 µM (inactive) | > 100 µM (inactive) | > 100 µM (inactive) |  | 83.2 µM (inactive) | > 100 µM (inactive) | > 100 µM (inactive)
CN(C(=O)C12C3(C(=O)C(C)(C)C)C4C5(C#N)C3C1(C(=O)C(C)(C)C)C5C42C(=O)C(C)(C)C)C(C)(C)C (centres undefined) | 42.4 µM (inactive) | 21.4 µM (inactive) | > 50 µM (inactive) | 10.4 µM (inactive) | > 50 µM (inactive) |  | 42.8 µM (inactive) | > 50 µM (inactive) | 35.3 µM (inactive)
C=C(CO)CC(O)c1ccccc1 (centres undefined) | > 100 µM (inactive) | > 100 µM (inactive) | > 100 µM (inactive) | > 100 µM (inactive) | > 100 µM (inactive) |  | > 100 µM (inactive) | > 100 µM (inactive) | > 100 µM (inactive)
O=C1C2CN(Cc3ccccc3)CC1CN(CC1CC1)C2 |  | > 100 µM (inactive) | > 100 µM (inactive) | > 100 µM (inactive) | > 100 µM (inactive) | > 100 µM (inactive) | > 100 µM (inactive) |  | 
CC(=O)OCCOCNC(=S)N/N=C/c1ccc([N+](=O)[O-])o1 | 58.7 µM (inactive) | 77.6 µM (inactive) | 15.7 µM (inactive) | > 100 µM (inactive) | 26.4 µM (inactive) | > 100 µM (inactive) | 37.9 µM (inactive) | > 100 µM (inactive) | 53.1 µM (inactive)
O=C1C(c2ccccc2)=C(c2ccccc2)C(c2ccc(CCCCCCc3ccc(C4=C(c5ccccc5)C(=O)C(c5ccccc5)=C4c4ccccc4)cc3)cc2)=C1c1ccccc1 | > 100 µM (inactive) | > 100 µM (inactive) | > 100 µM (inactive) |  | > 100 µM (inactive) |  | > 100 µM (inactive) | > 100 µM (inactive) | > 100 µM (inactive)
COc1ccccc1NC(=O)C1=C(C)NC(C)=C(C(=O)Nc2ccccc2OC)C1c1ccc(C(C)C)cc1 | > 100 µM (inactive) | > 100 µM (inactive) | > 100 µM (inactive) | 18.6 µM (inactive) | 48.4 µM (inactive) | > 100 µM (inactive) | 59.7 µM (inactive) |  | > 100 µM (inactive)
COc1ccc(/C=N/NS(=O)(=O)c2ccccc2)cc1 |  | > 100 µM (inactive) | > 100 µM (inactive) | > 100 µM (inactive) | > 100 µM (inactive) | > 100 µM (inactive) | > 100 µM (inactive) | > 100 µM (inactive) | > 100 µM (inactive)
Cc1nc(-n2nc(-c3ccccc3)cc2-c2ccccc2)sc1C(=O)CC(=O)C(=O)Nc1ccc(Cl)c(Cl)c1 | > 100 µM (inactive) | 45.1 µM (inactive) | > 100 µM (inactive) |  | 45.8 µM (inactive) | > 100 µM (inactive) | 59.8 µM (inactive) | > 100 µM (inactive) | 34 µM (inactive)
CC[C@@H]1NC(C(=O)OC)Cc2c1[nH]c1ccccc21 (some centres undefined) | > 100 µM (inactive) | > 100 µM (inactive) | > 100 µM (inactive) |  | > 100 µM (inactive) | > 100 µM (inactive) | > 100 µM (inactive) | > 100 µM (inactive) | > 100 µM (inactive)
O=C1c2cc3c(cc2[C@@H]2NC4CCCC14O2)OCO3 (some centres undefined) |  | > 100 µM (inactive) | > 100 µM (inactive) | > 100 µM (inactive) | > 100 µM (inactive) |  | > 100 µM (inactive) | > 100 µM (inactive) | > 100 µM (inactive)
CN1C(=O)C2C(C1=O)C1(O)c3ccccc3C2(N)c2ccccc21 (centres undefined) | > 100 µM (inactive) |  | > 100 µM (inactive) |  |  | > 100 µM (inactive) | > 100 µM (inactive) | > 100 µM (inactive) | > 100 µM (inactive)
CS(=O)(=O)N(N(CCCl)S(=O)(=O)c1ccccc1)S(C)(=O)=O | > 100 µM (inactive) | > 100 µM (inactive) | > 100 µM (inactive) | > 100 µM (inactive) | > 100 µM (inactive) | 31 µM (inactive) | > 100 µM (inactive) |  | > 100 µM (inactive)
